# Reference: US8084645B2, “4-phenylamino-benzaldoxime derivatives and uses thereof as mitogen-activated protein kinase kinase (MEK) inhibitors” (Chugai Seiyaku Kabushiki Kaisha, priority 2003, dated 2011)
# Where two headings read alike, the source gives them in different places.
# How the values were obtained:
# [1] = test system: Human colon cancer cell line HT-29; experiment: Determination of the activity of inhibiting cell proliferation (Cell Counting Kit-8); type: cell-based; conditions: HT-29, 96 h, HT29, 2,000 cells/well, incubated four days, read-out: Cell proliferation inhibitory activity (HT29) IC50
# Description: Human colon cancer cell line HT-29, obtained from American Type Culture Collection (VA, USA), and human non-small cell lung cancer cell line QG56, obtained from Immuno-Biological Laboratories Co., Ltd., were plated at 2,000 cells/well in a 96-well culture plate, and incubated for four days after addition of a MEK inhibitor of a given concentration.
# [2] = Determination of stability against mouse liver microsomes; type: in vitro ADME; conditions: mouse liver microsomes 1 mg protein/mL, 2 mM NADPH, pH 7.4, 37 C; read-out: Stability against mouse liver microsome NADPH+ T1/2
# Description: (§1) The enzyme reaction was quenched with three volumes of acetonitrile, and the reaction mixture was centrifuged at 1,500 rpm for ten minutes to provide a supernatant as a sample to be measured. Stability against mouse liver microsomes was measured using HPLC/MS to determine the compounds in the sample.
# [3] = Determination of stability against human liver microsomes; type: in vitro ADME; conditions: human liver microsomes 1 mg protein/mL, 2 mM NADPH, pH 7.4, 37 C; read-out: Stability against human liver microsome NADPH+ T1/2
# Description: as §1, with “human” for “mouse”
# [4] = Determination of water solubility (equilibrium stirring method); type: physicochemical; conditions: for solubility at 2 h: aqueous buffer, thermodynamic from solid, read-out: Water solubility (LySA PH 6.5)
# Description: The vessels were sealed, and the contents were sonicated at room temperature (20° C.) for ten minutes, and then stirred with a stirrer for two hours. After reaching solution equilibrium, the solution was separated with a membrane filter, and the solute concentration was determined using HPLC.
# [5] = target: MEK (Homo sapiens, UniProt Q02750); experiment: Determination of MEK inhibitory activities (Raf-1 kinase cascade assay, MBP phosphorylation, 33P-ATP)
# Description: The radioisotope used was [γ^33P]-ATP (Amersham Biosciences, K.K.).
# [6] = 50 mM phosphate buffer pH 6.5, room temperature (20 C)
# Chain of MEK (Q02750 whole entry): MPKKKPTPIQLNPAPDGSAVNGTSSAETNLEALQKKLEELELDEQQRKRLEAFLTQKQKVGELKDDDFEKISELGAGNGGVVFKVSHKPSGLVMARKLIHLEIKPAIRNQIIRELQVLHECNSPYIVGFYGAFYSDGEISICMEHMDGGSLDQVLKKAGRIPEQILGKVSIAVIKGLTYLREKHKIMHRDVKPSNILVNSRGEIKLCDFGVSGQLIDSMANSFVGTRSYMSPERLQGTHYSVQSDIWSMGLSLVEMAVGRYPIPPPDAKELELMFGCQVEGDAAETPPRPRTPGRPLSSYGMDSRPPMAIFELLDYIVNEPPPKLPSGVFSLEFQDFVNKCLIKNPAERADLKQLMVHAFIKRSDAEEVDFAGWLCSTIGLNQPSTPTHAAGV
Compound,IC50 [1] [nM],half-life [2] [h],half-life [3] [h],"solubility at 2 h ([4]; phosphate buffer, 20 °C, at pH 6.67) [µM]",IC50 [5] [nM],"solubility at 2 h ([4]; phosphate buffer, 20 °C, at pH 6.06) [µM]","solubility at 2 h [4, 6] [µM]","Water solubility (LySA PH 6.5) [4, 6] [µM]","solubility at 2 h ([4]; phosphate buffer, 20 °C, at pH 6.08) [µM]","solubility at 2 h ([4]; phosphate buffer, 20 °C, at pH 6.87) [µM]"
"C#Cc1ccc(Nc2c(C(=O)NOCCO)cc(/C=N/OCC(O)CO)c(F)c2F)c(F)c1 (racemic) [Compound 8, (E)-dl-5-[(2,3-Dihydroxy-propoxyimino)-methyl]-2-(4-ethynyl-2-fluoro-phenylamino)-3,4-difluoro-N-(2-hydroxy-ethoxy)-benzamide]",185,> 6,1.24,–,150,1470,–,–,–,–
"O=C(NOCCO)c1cc(/C=N/OCCO)c(F)c(F)c1Nc1ccc(I)cc1F [Compound 1, (E)-3,4-difluoro-2-(2-fluoro-4-iodo-phenylamino)-N-(2-hydroxy-ethoxy)-5-[(2-hydroxy-ethoxyimino)-methyl]-benzamide]",80,3.94,1.08,–,100,–,–,8.3,–,–
"C#Cc1ccc(Nc2c(C(=O)NOCCO)cc(/C=N/OCCO)c(F)c2F)c(F)c1 [Compound 2, (E)-2-(4-ethynyl-2-fluoro-phenylamino)-3,4-difluoro-N-(2-hydroxy-ethoxy)-5-[(2-hydroxy-ethoxyimino)-methyl]-benzamide]",150,2.25,1.34,–,240,–,–,415,–,–
"C#Cc1ccc(Nc2c(C(=O)NOCCO)cc(/C=N/OCCCO)c(F)c2F)c(F)c1 [Compound 5, (E)-2-(4-Ethynyl-2-fluoro-phenylamino)-3,4-Difluoro-N-(2-hydroxy-ethoxy)-5-[(3-hydroxy-propoxyimino)-methyl]-benzamide]",170,> 6,4.12,–,150,–,–,–,–,426
"CC(O)CO/N=C/c1cc(C(=O)NOCCO)c(Nc2ccc(I)cc2F)c(F)c1F (stereo not drawn) [Compound 15, (E)-3,4-difluoro-2-(2-fluoro-4-iodo-phenylamino)-N-(2-hydroxy-ethoxy)-5-[(2-hydroxy-propoxyimino)-methyl]-benzamide]",137,0.978,2.67,–,110,–,8,–,–,–
"CN(C)CCO/N=C/c1cc(C(=O)NOCCO)c(Nc2ccc(I)cc2F)c(F)c1F [Compound 16, (E)-5-[(2-dimethylamino-ethoxyimino)-methyl]-3,4-difluoro-2-(2-fluoro-4-iodo-phenylamino)-N-(2-hydroxy-ethoxy)-benzamide]",210,3.08,> 6,–,244,–,2400,–,–,–
"O=C(NOCCO)c1cc(/C=N/OCCN2CCOCC2)c(F)c(F)c1Nc1ccc(I)cc1F [Compound 18, (E)-3,4-difluoro-2-(2-fluoro-4-iodo-phenylamino)-N-(2-hydroxy-ethoxy)-5-[(2-morpholin-4-yl-ethoxyimino)-methyl]-benzamide]",140,> 6,> 6,–,262,–,164,–,–,–
"O=C(NOCCO)c1cc(/C=N/OCCN2CCC(O)CC2)c(F)c(F)c1Nc1ccc(I)cc1F [Compound 19, (E)-3,4-difluoro-2-(2-fluoro-4-iodo-phenylamino)-N-(2-hydroxy-ethoxy)-5-{[2-(4-hydroxy-piperidin-1-yl)-ethoxyimino]-methyl}-benzamide]",750,> 6,> 6,–,693,–,2910,–,–,–
"O=C(NOCCO)c1cc(/C=N/OCCN2CCC[C@H]2CO)c(F)c(F)c1Nc1ccc(I)cc1F [Compound 20, (E)-3,4-difluoro-2-(2-fluoro-4-iodo-phenylamino)-N-(2-hydroxy-ethoxy)-5-{[2-((S)-hydroxymethyl-pyrrolidin-1-yl)-ethoxyimino]-methyl}-benzamide]",643,> 6,> 6,–,696,–,1830,–,–,–
"O=C(NOCCO)c1cc(/C=N/OCCN2CCCC2)c(F)c(F)c1Nc1ccc(I)cc1F [Compound 21, (E)-3,4-difluoro-2-(2-fluoro-4-iodo-phenylamino)-N-(2-hydroxy-ethoxy)-5-[(2-pyrrolidin-1-yl-ethoxyimino)-methyl]-benzamide]",651,> 6,> 6,–,802,–,1480,–,–,–
"CC(=O)NCCO/N=C/c1cc(C(=O)NOCCO)c(Nc2ccc(I)cc2F)c(F)c1F [Compound 24, (E)-5-[(2-acetylamino-ethoxyimino)-methyl]-3,4-difluoro-2-(2-fluoro-4-iodo-phenylamino)-N-(2-hydroxy-ethoxy)-benzamide]",86,> 6,> 6,–,48,–,–,16,–,–
"O=C(NOCCO)c1cc(/C=N/OCCN2CCNC2=O)c(F)c(F)c1Nc1ccc(I)cc1F [Compound 27, (E)-3,4-difluoro-2-(2-fluoro-4-iodo-phenylamino)-N-(2-hydroxy-ethoxy)-5-{[2-(2-oxo-imidazolidin-1-yl)-ethoxyimino]-methyl}-benzamide]",69,> 6,2.41,–,203,–,10,–,–,–

# Molecules with a lower IC50 [1], results first:
IC50 [1] [nM],half-life [2] [h],half-life [3] [h],"solubility at 2 h ([4]; phosphate buffer, 20 °C, at pH 6.67) [µM]",IC50 [5] [nM],"solubility at 2 h ([4]; phosphate buffer, 20 °C, at pH 6.06) [µM]","solubility at 2 h [4, 6] [µM]","Water solubility (LySA PH 6.5) [4, 6] [µM]","solubility at 2 h ([4]; phosphate buffer, 20 °C, at pH 6.08) [µM]","solubility at 2 h ([4]; phosphate buffer, 20 °C, at pH 6.87) [µM]",Compound
65,0.97,1.55,–,78,–,6.4,–,–,–,"O=C(NOCCO)c1cc(/C=N/O)c(F)c(F)c1Nc1ccc(I)cc1F [Compound 3, (E)-3,4-difluoro-2-(2-fluoro-4-iodo-phenylamino)-N-(2-hydroxy-ethoxy)-5-(hydroxyiminomethyl)-benzamide]"
50,> 6,> 6,–,20,–,< 31.3,–,–,–,"O=C(NOCCO)c1cc(/C=N/OCc2ncc[nH]2)c(F)c(F)c1Nc1ccc(I)cc1F [Compound 28, (E)-3,4-difluoro-2-(2-fluoro-4-iodo-phenylamino)-N-(2-hydroxy-ethoxy)-5-[(1H-imidazol-2-ylmethoxyimino)-methyl]-benzamide]"
45,> 6,> 6,–,69,–,–,–,3.8,–,"O=C(NOCCO)c1cc(/C=N/OCCCO)c(F)c(F)c1Nc1ccc(I)cc1F [Compound 4, (E)-3,4-Difluoro-2-(2-fluoro-4-iodo-phenylamino)-N-(2-hydroxy-ethoxy)-5-[(3-hydroxy-propoxyimino)-methyl]-benzamide]"
44,3.3,0.813,–,30,–,54,–,–,–,"CC(=O)N(C)CCO/N=C/c1cc(C(=O)NOCCO)c(Nc2ccc(I)cc2F)c(F)c1F [Compound 25, (E)-5-{[2-(acetyl-methyl-amino)-ethoxyimino]-methyl}-3,4-difluoro-2-(2-fluoro-4-iodo-phenylamino)-N-(2-hydroxyethoxy)-benzamide]"
37,> 6,1.51,162,33,–,–,–,–,–,"O=C(NOCCO)c1cc(/C=N/OCC(O)CO)c(F)c(F)c1Nc1ccc(I)cc1F (racemic) [Compound 7, (E)-dl-5-[(2,3-Dihydroxy-propoxyimino)-methyl]-3,4-difluoro-2-(2-fluoro-4-iodo-phenylamino)-N-(2-hydroxy-ethoxy)-benzamide]"
37,0.79,0.91,–,27,–,127,–,–,–,"O=C(NOCC(O)CO)c1cc(/C=N\OCCO)c(F)c(F)c1Nc1ccc(I)cc1F (racemic) [Compound 58, dl-(Z)—N-(2,3-dihydroxy-propoxy)-3,4-difluoro-2-(2-fluoro-4-iodo-phenylamino)-5-[(2-hydroxy-ethoxyimino)-methyl]-benzamide]"
36,> 6,> 6,–,75,–,146,–,–,–,"NCCO/N=C/c1cc(C(=O)NOCCO)c(Nc2ccc(I)cc2F)c(F)c1F [Compound 22, (E)-5-[(2-amino-ethoxyimino)-methyl]-3,4-difluoro-2-(2-fluoro-4-iodo-phenylamino)-N-(2-hydroxy-ethoxy)-benzamide]"
27,> 6,1.49,–,67,–,–,–,–,–,"CS(=O)(=O)CCO/N=C/c1cc(C(=O)NOCCO)c(Nc2ccc(I)cc2F)c(F)c1F [Compound 40, (E)-3,4-difluoro-2-(2-fluoro-4-iodo-phenylamino)-N-(2-hydroxy-ethoxy)-5-[(2-methanesulfonyl-ethoxyimino)-methyl]-benzamide]"
